In PubChem BioAssay AID1205 (EPA DSSTox, 2008) one finds outcome data, which are given here for 87 molecules.

Calls of active or inactive are those of the source.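 Rule for the calls: active = tumour findings in long-term animal cancer tests in more than one sex, species or organ; inactive = no tumour finding and more than one negative test.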

This series in a line: DSSTox (CPDBAS) Carcinogenic Potency Database Summary MultiCellCall Results. To be noted: animal carcinogenicity bioassays, multi-cell call summary. Summed up: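 ActivityScore sums 50 for multispecies, 30 for multisex and 20 for multisite positivity. Based on the most positive experiment per sex-species across standardised chronic rodent and other animal cancer tests.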

Turning to `CC(=O)C(N=Nc1ccc(-c2ccc(N=NC(C(C)=O)C(=O)Nc3ccccc3)c(Cl)c2)cc1Cl)C(=O)Nc1ccccc1` (configuration not stated), the outcome was “inactive; multisex inactive; multispecies inactive”.

For `CCN(Cc1cccc(S(=O)(=O)[O-])c1)c1ccc(C(=C2C=CC(=[N+](C)C)C=C2)c2ccc(N(CC)Cc3cccc(S(=O)(=O)O)c3)cc2)cc1`, the outcome was “active; multisite active”. Consider `CC(Oc1c(Cl)cccc1Cl)C1=NCCN1` (configuration not stated), for which the outcome was “inactive; multisex inactive”. The entry for `NC(=O)N/N=C/c1ccc([N+](=O)[O-])o1` is “active; multisite active; multispecies active”; for `O=C(O)c1[nH]n(-c2ccc(S(=O)(=O)O)cc2)c(=O)c1N=Nc1ccc(S(=O)(=O)O)cc1` it is “inactive; multisex inactive; multispecies inactive”. `CCNN`: the outcome is “active; multisite active; multisex active”.

As to `COc1ccc(C(=O)Nc2c(Cl)cncc2Cl)cc1OC1CCCC1`, the outcome was “active; multisex active”. As for `C=C1C[C@]23C[C@@]1(O)CC[C@H]2[C@@]12C=C[C@H](O)[C@@](C)(C(=O)O1)[C@H]2[C@@H]3C(=O)O`, the outcome was “inactive; multisex inactive”. The entry for `Nc1ccc2oc3ccccc3c2c1` is “active; multisite active; multisex active”; for `Cc1ccc2c(c1[N+](=O)[O-])C(=O)c1ccccc1C2=O` it is “active; multisite active; multisex active; multispecies active”; for `CC1SC(C)N(N=O)C(C)S1` (configuration not stated) it is “active; multisite active”.

On to `Nc1ccc(NC(=O)c2ccc(N)cc2)cc1`, for which the outcome was “inactive; multisex inactive”.

For the molecule `CCn1nc(C)c2c1C(c1ccccc1)=NCC(=O)N2`, the outcome was “active; multisex active”. Regarding `CCOP(=S)(OCC)SC1OCCOC1SP(=S)(OCC)OCC` (configuration not stated), the outcome was “inactive; multisex inactive; multispecies inactive”.

Take `CC(C)(C)O`: the outcome is “active; multisite active; multisex active; multispecies active”. For `CN(C)C(=S)[S][Pb][S]C(=S)N(C)C`, the outcome is “inactive; multisex inactive; multispecies inactive”. With `O=C(Nc1nc(-c2ccc([N+](=O)[O-])o2)cs1)C(F)(F)F`, the outcome was “active; multisite active; multispecies active”.

Turning to `CCCN(N)C=O`, the outcome was “active; multisite active; multisex active”.

`O=CCBr`: the outcome is “inactive; multisex inactive”. With `CCC(Br)(CC)C(=O)NC(N)=O`, the outcome was “inactive; multisex inactive; multispecies inactive”. `ClC(Cl)=C(Cl)c1c(Cl)c(Cl)c(Cl)c(Cl)c1Cl`: the outcome is “inactive; multisex inactive; multispecies inactive”. With `Cc1cnc2ccc3c(nc(N)n3C)c2n1`, the outcome was “active; multisite active; multisex active; multispecies active”. Then `CCOC(=O)CC(SP(=S)(OC)OC)C(=O)OCC` (configuration not stated), with “inactive; multisex inactive; multispecies inactive”; and `c1ccc(Nc2ccc3ccccc3c2)cc1`, with “inactive; multisex inactive; multispecies inactive”. Then `CCCCCCCCCCCN(C)N=O`, with “active; multisite active”. Then `CN(C)[C@@H]1C(=O)C(C(N)=O)=C(O)[C@@]2(O)C(=O)C3=C(O)c4c(O)cccc4[C@@](C)(O)[C@H]3C[C@@H]12`, with “inactive; multisex inactive; multispecies inactive”; and `Cc1cnc(NC(=O)C2=C(O)c3ccccc3S(=O)(=O)N2C)s1`, with “inactive; multisex inactive”. With `Nc1ccc(-c2ccc(N)c(Cl)c2)cc1Cl`, the outcome was “active; multisite active; multisex active; multispecies active”. Turning to `CN(C)CCN(Cc1cccs1)c1ccccn1`, the outcome was “active; multisex active”. For the molecule `NC(=O)Cc1c([O-])on[n+]1Cc1ccccc1`, the outcome was “active; multisex active; multispecies active”. Regarding `C=CC(=O)NCO`, the outcome is “active; multisite active; multisex active”.

As for `CC(=O)NNC(C)=O`, the outcome was “inactive; multisex inactive”. For `C1CCOC1`, the outcome is “active; multisite active; multisex active; multispecies active”. Regarding `O=[N+]([O-])c1ccc2c(c1)Cc1ccccc1-2`, the outcome is “active; multisite active”. For the molecule `CCC1CO1` (configuration not stated), the outcome is “active; multisite active”. With `Cn1cnc([N+](=O)[O-])c1Sc1ncnc2nc[nH]c12`, the outcome is “active; multisite active”. On to `O=C(O)CNCC(=O)O`, for which the outcome was “inactive; multisex inactive”. Consider `NNC=O`, for which the outcome is “active; multisex active”. With `Nc1nnc(-c2ccc([N+](=O)[O-])o2)o1`, the outcome was “active; multisite active”. Then `Nc1ccc(Cl)c(N)c1`, with “active; multisite active; multisex active; multispecies active”. Turning to `COCCl`, the outcome was “active; multispecies active”.

Turning to `Nc1ncc([N+](=O)[O-])s1`, the outcome is “active; multisite active”. On to `C=CC=C`, for which the outcome is “active; multisite active; multisex active; multispecies active”. For `COC(=O)C(C)(C)Oc1ccc(-c2ccc(Cl)cc2)cc1`, the outcome was “active; multisite active; multisex active; multispecies active”.

For `CN(N=O)C(=O)N[C@@H]1[C@@H](O)[C@H](O)[C@@H](CO)O[C@@H]1O`, the outcome is “active; multisite active; multisex active; multispecies active”.

In the case of `CCOC(=O)N(C)N=O`, the outcome was “active; multisite active”. Turning to `CC(=O)Nc1ccc(N=Nc2cc(C)ccc2O)cc1`, the outcome was “active; multisex active; multispecies active”. In the case of `CCN(CC)C(=O)c1cccc(C)c1`, the outcome is “inactive; multisex inactive; multispecies inactive”. Consider `NNc1ccccc1`, for which the outcome is “active; multisex active”. As to `NC(N)=Nc1nc(CSCCNc2nsnc2N)cs1`, the outcome is “active; multisex active”. Then `Nc1cc(Cl)c(-c2cc(Cl)c(N)cc2Cl)cc1Cl`, with “inactive; multisex inactive; multispecies inactive”; and `c1ccc(N=Nc2ccccc2)cc1`, with “active; multisite active; multisex active”; and `O=Cc1ccccc1`, with “active; multisex active”.

As for `COc1cc2c(c3oc4cccc(O)c4c(=O)c13)C1C=COC1O2` (configuration not stated), the outcome was “active; multisite active; multisex active; multispecies active”. For the molecule `O=NN(CC(F)(F)F)CC(F)(F)F`, the outcome is “inactive; multisex inactive”. Turning to `CN(C)CCN(Cc1ccco1)c1ccccn1`, the outcome was “inactive; multisex inactive”. As to `Oc1cccc(O)c1`, the outcome is “inactive; multisex inactive; multispecies inactive”. `S=C([S-])NCCNC(=S)[S-].[Zn+2]`: the outcome is “inactive; multisex inactive; multispecies inactive”. With `S=C(S)NCCNC(=S)S`, the outcome was “inactive; multisex inactive”.

In the case of `O=CCCCC=O`, the outcome was “inactive; multisex inactive; multispecies inactive”. As for `C=CC1=C(C)C2=CC3=NC(=C(CC(=O)[O-])C4=NC(=C(C)C4=C([O-])[O-])C=c4[n-]c(c(C)c4CC)=CC1=N2)[C@@H](CCC(=O)[O-])[C@@H]3C.[Cu+2].[Na+].[Na+].[Na+]`, the outcome is “inactive; multisex inactive”. For the molecule `O=C([O-])C(=O)O.O=C([O-])C(=O)O.[K+].[K+].[O]=[Ti]`, the outcome is “inactive; multisex inactive”. On to `C=CC#N`, for which the outcome was “active; multisite active; multisex active”. Consider `CCCNN`, for which the outcome is “active; multisex active”. `Cc1c(N)cccc1N`: the outcome is “inactive; multisex inactive; multispecies inactive”.

Turning to `CCBr`, the outcome was “active; multisite active; multisex active; multispecies active”. For `C=CCN(CCO)N=O`, the outcome is “active; multisite active”. `C=C1C(CCl)(CCl)C2(Cl)C(Cl)C(Cl)C1(Cl)C2(Cl)Cl` (configuration not stated): the outcome was “active; multisex active”. As for `O=C/C=C/c1ccccc1`, the outcome is “inactive; multisex inactive; multispecies inactive”. Consider `COc1ccc(C(=O)/C(Br)=C\C(=O)O)cc1`, for which the outcome is “active; multisite active; multisex active”. For `C=CC(O)c1ccc2c(c1)OCO2` (configuration not stated), the outcome was “active; multisite active; multisex active; multispecies active”.

Turning to `COc1ccc2nc(S(=O)Cc3ncc(C)c(OC)c3C)[nH]c2c1` (configuration not stated), the outcome is “active; multisex active”. Regarding `Cc1ccccc1[N+](=O)[O-]`, the outcome is “active; multisite active; multisex active; multispecies active”. Turning to `COC1[C@@H](O[C@@H]2O[C@H](C)[C@@H](O[C@H]3C[C@@](C)(O)[C@H](OC(=O)CC(C)C)[C@H](C)O3)[C@H](N(C)C)[C@H]2O)[C@@H](CC=O)C[C@@H](C)[C@@H](O)/C=C/C=C/C[C@@H](C)OC(=O)C[C@H]1OC(C)=O` (some centres not stated), the outcome is “inactive; multisex inactive”.

For the molecule `CC(=O)N(C(C)=O)c1cccc2c1Cc1ccccc1-2`, the outcome is “active; multisite active”. Regarding `CC(=O)NNC(=O)c1ccncc1`, the outcome was “active; multisex active”. For `CC1(C)COC1=O`, the outcome is “active; multisex active”.

As for `CC[C@H](C)C(=O)O[C@H]1C[C@@H](C)C=C2C=C[C@H](C)[C@H](CC[C@@H]3C[C@@H](O)CC(=O)O3)[C@H]21`, the outcome was “active; multisite active; multisex active”. `C1CCC(C(CC2CCCCN2)C2CCCCC2)CC1` (configuration not stated): the outcome is “inactive; multisex inactive”. Turning to `O=S(=O)(c1ccc(Cl)cc1)c1ccc(Cl)cc1`, the outcome is “inactive; multisex inactive; multispecies inactive”. The entry for `CC(=O)OC/C=C(\C)CCC=C(C)C` is “inactive; multisex inactive; multispecies inactive”; for `Cc1cccc2cccnc12` it is “inactive; multisex inactive”. With `CCCCCCCCCCCCN(C)N=O`, the outcome was “active; multisite active; multisex active”. Take `CCCCNC(=O)N(CCCC)N=O`: the outcome was “active; multisite active”. Turning to `CC(Cl)CCl` (configuration not stated), the outcome was “active; multisex active”. Consider `CCOC(=O)CC(SP(=O)(OC)OC)C(=O)OCC` (configuration not stated), for which the outcome is “inactive; multisex inactive; multispecies inactive”. Consider `C=CCOC(=O)CC(C)C`, for which the outcome is “active; multisex active; multispecies active”.
